# Experimental data reported in patent US20150183721A1, “AMINO-ALCOHOL ANALOGUES AND USES THEREOF” (YISSUM RESEARCH DEVELOPMENT COMPANY OF THE HEBREW …, priority 2009, published 2015).
# Entries after “also recorded” stand apart in the source; their conditions may differ. Like-named read-outs stand apart in the source and are kept apart here.
# How the values were obtained:
# [1] = Solubility of compounds in DMSO, ethanol and Solutol-HS15 (20 mM stock solutions); assay type: physicochemical
# Description: General Procedure for the Solutol Emulsions Preparation
# The amino-alcohol compound of the invention (4 μmol) was mixed with Solutol HS15 (6.0 mg) and heated to 70-80° C. Hot water (1 ml) was added to the mixture and stirred thoroughly. Thickening occurs initially due to hydration and reaches a maximum when half of the water has been added. The viscosity decreases as more water is added.
# The solubility of compounds of the invention in ethanol and DMSO was tested in order to study their cytotoxicity.
# [2] = tested on: A2780 (ovarian carcinoma cell line); assay: Cytotoxicity test, IC50 determination by MTT test; assay type: cell-based; details: 24 hr incubation, 20000 cells/well, 10% serum, read-out: IC50 ± SD (MTT-Test), A2780
# Description: (§1) Cytotoxicity Tests (IC50 Determination by MTT test)
# (§2) The cytotoxicity of the compounds of the invention A1-A12 was tested in comparison to cis-Pt in four cancer cell-lines:
# A2780 (ovarian carcinoma cell line), […]
# (§3) HT-29 (Human colon adenocarcinoma grade II) by MTT test after an incubation of 24 hours.
# (§4) Culture Medium Preparation for Attached Cell-lines: A2780, A2780cisR, CRL-5803, HT-29. • Medium RPMI-1640: 86% • Serum (FCS-fatal calf serum/FBS-fatal bovine serum): 10% • L-Glutamine: 1% • Antibiotics-penicillin-streptomycin(P/S): 1% • Na pyruvate: 1% • HEPES: 1%
# [3] = tested on: A2780cisR (ovarian carcinoma-cisPt resistance cell line); assay: Cytotoxicity test, IC50 determination by MTT test; assay type: cell-based; details: 24 hr incubation, 20000 cells/well, 10% serum, read-out: IC50 ± SD (MTT-Test), A2780cisR
# Description: as §1
# (§5) The cytotoxicity of the compounds of the invention A1-A12 was tested in comparison to cis-Pt in four cancer cell-lines: […]
# A2780cisR (ovarian carcinoma-cisPt resistance cell line), […]
# as §3, §4
# [4] = tested on: HT-29 (Human colon adenocarcinoma grade II); assay: Cytotoxicity test, IC50 determination by MTT test; assay type: cell-based; details: 24 hr incubation, 20000 cells/well, 10% serum, read-out: IC50 ± SD (MTT-Test), HT-29
# Description: as §1, §5, §3, §4
# [5] = tested on: CRL-5803 (non-small cell lung carcinoma cell line); assay: Cytotoxicity test, IC50 determination by MTT test; assay type: cell-based; details: 24 hr incubation, 20000 cells/well, 10% serum, read-out: IC50 ± SD (MTT-Test), CRL5803
# Description: as §1, §5
# (§6) CRL-5803 (non-small cell lung carcinoma cell line), and
# as §3, §4
# [6] = tested on: SPM formation in A2780 cells; assay: Enzymatic assay in cells: formation of fluorescent SPM from Bodipy-12-CER (SMS inhibition), HPLC; assay type: cell-based; details: 72 hr incubation in total, related to the control
# Description: (§7) Enzymatic Assay in Cells (SMS, GCS and CDase Enzyme inhibition Studies) • Plate 10,000 cells in 0.5 ml culture media per well in a 48 well plate. • Incubate (37° C., 5% CO2) overnight to allow the cells to attach to the wells. • Add 10 μl of the fluorescent reagent BodiPy-12-Cer 0.5 μM/well. • After 48 hr incubation with the BodiPy-12-Cer, add 10 μl of the drug of interest dissolved in DMSO/Ethanol/solutol to each well. • Incubate (37° C., 5% CO2) for another 24 hr. • Remove the media. • Wash each well with 200 μl PBS. • Add 2000 trypsin allow sitting for 5 minutes in incubator. • Neutralize Trypsin with culture medium (complete to 1 ml) • Add suspension to 1.5 ml ephendorf. • Centrifuge for 5 minutes at 1200 rpm then remove the media. • Extract the cells with 1 ml of 1:2 CH2Cl2:MeOH by strong vortex stirring followed by centrifuge for 5 minutes at 13400 rpm. Then add the extraction into 2 ml ephendorf. • Extract the cells again with the same procedure with 1 ml of 1:1 CH2Cl2:MeOH. • Remove the solvent. • Add 2000 ethanol into the 2 ml ephendorf, do strong vortex stirring followed by centrifuge for 5 minutes at 13400 rpm. • Take 150 μl of the above sample and inject to the HPLC to quantify the relative metabolite relatively to control samples. • HPLC method conditions are:
# (§8) Conditions: RP-8 Column, EX. λ 505 nm, EM. λ 530 nm
# (§9) A fluorescent procedure was utilized in order to study the enzymatic inhibition of glucosylceramide synthase (GCS), ceramidases (CDase) and sphingomyelin synthase (SMS) enzymes, which can shed some light on a possible mechanism for ceramide accumulation and apoptosis. The fluorescent procedure was based on a 48-hr incubation of cancer cells with the fluorescent substrate, Bodipy (4,4-difluoro-4-bora-3a,4a-diaza-s-indacene), conjugated ceramide (Bodipy-12-CER) followed by another 24-hr period of incubation in the presence of nontoxic concentrations of compounds of the invention (72 hr incubation in total). After a predetermine incubation period, cells were washed, their lipids were extracted and the various lipids containing fluorescent fatty acid-ceramide, SPM and GC were quantified by HPLC.
# [7] = tested on: SPM formation in A2780cisR cells; assay: as above; assay type: cell-based; details: 72 hr incubation in total, related to the control
# Description: as §7, §8, §9
# Caspase-3 = assay: Apoptosis determination by Caspase-3 assay (EnzCheck Caspase-3 Assay Kit #2); assay type: cell-based; details: 8 hr incubation
# Description: Apoptosis Determination by Caspase-3 Assay
# The assay was done according to the protocol of EnzCheck Caspase-3 Assay Kit #2 (Invitrogen) [Ref: 4].
# Caspase-3 was checked using invitrogene protocol. 8 hr incubation was done.
# [8] = tested on: A2780, A2780cisR, CRL-5803, HT-29; assay: Cytotoxicity (MTT), overall statements on the four cancer cell-lines; assay type: cell-based; details: 24 hr, compared to cis-Pt
# Description: as §1, §2
# A2780 (ovarian carcinoma cell line),
# A2780cisR (ovarian carcinoma-cisPt resistance cell line),
# as §6, §3, §4
# [9] = tested on: SPM formation in CRL5803 cells; assay: Enzymatic assay in cells: formation of fluorescent SPM from Bodipy-12-CER (SMS inhibition), HPLC; assay type: cell-based; details: nontoxic concentrations (A2: 4, 6, 8, 12 μM/well; A10: 0.5, 1, 2, 4 μM/well), 72 hr
# Description: as §7, §8, §9
# [10] = tested on: SPM formation in HT-29 cells; assay: as above; assay type: cell-based, Human; details: nontoxic concentrations (A2: 4, 6, 8, 12 μM/well; A10: 0.5, 1, 2, 4 μM/well), 72 hr
# Description: as §7
# Conditions: RP-8 Column, EX. λ 505 nm, EM. λ 530 nm […]
# [11] = Solutol-HS15 lipidic emulsion, aqueous with cosolvent or surfactant or cyclodextrin, read-out: Solubility, Solutol-HS15
# [12] = organic solvent or mixture, DMSO, 20 mM stock solutions, read-out: Solubility, DMSO
# [13] = organic solvent or mixture, ethanol, 20 mM stock solutions, read-out: Solubility, Ethanol
# [14] = Homo sapiens, A2780, solutol solutions
# [15] = Homo sapiens, A2780cisR, solutol solutions
# [16] = Homo sapiens, HT-29, solutol solutions
# [17] = Homo sapiens, A2780, ethanol solutions
# [18] = Homo sapiens, A2780cisR, ethanol solutions
# [19] = Homo sapiens, HT-29, ethanol solutions
"solubility [1, 11] [mM]","solubility [1, 12] [mM]","solubility [1, 13] [mM]",Compound,"IC50 [2, 14] [µM]","IC50 [3, 15] [µM]","IC50 [4, 16] [µM]",IC50 ([5]; solutol solutions) [µM],IC50 ([5]; ethanol solutions) [µM],"Solubility, Ethanol ([1]; ethanol, 20 mM stock solutions)",IC50 ([2]; ethanol solutions) [µM],IC50 ([3]; ethanol solutions) [µM],IC50 ([4]; ethanol solutions) [µM],further results
> 4,< 20,< 20,"CCCCCCCCCCCCCCCCC(O)CNCCCCCCCCCCCC (stereo not drawn) [Compound A5, 1-Dodecyl-amino-octadecan-2-ol]",> 100,> 100,> 100,> 100,,,,,,
> 4,< 20,< 20,"CCCCCCCCCCCCCCCCC(O)CNCCCCCC (stereo not drawn) [Compound A3, 1-Hexyl-amino-octadecan-2-ol]",11 ± 1,9 ± 1,19 ± 5,18 ± 2,,,,,,
> 4,,< 20,"CCCCCCCCCCCCCCCCC(O)CNCCCC (stereo not drawn) [Compound A2, 1-Butyl-amino-octadecan-2-ol]",11 ± 3,12 ± 3,16 ± 2,32 ± 4,,,,,,"solubility in ethanol and DMSO ([1]; 20 mM stock solutions): only soluble in DMSO; Solubility, DMSO ([1]; DMSO, 20 mM stock solutions): ✓*; inhibition at 6 µM ([6]; Homo sapiens, 6 μM): ~10%; inhibition of SPM formation ([7]; 6 μM): no significant effect; Caspase-3 increase (Caspase-3; 20 μM): 3 fold"
> 4,< 20,< 20,"CCCCCCCCCCCCCCCCC(O)CNCCCCCCCC (stereo not drawn) [Compound A4, 1-Octyl-amino-octadecan-2-ol]",14 ± 3,12 ± 2,15 ± 6,29 ± 4,,,,,,

# The remaining lines, values behind:
Compound,"solubility [1, 11] [mM]","solubility [1, 12] [mM]","solubility [1, 13] [mM]","IC50 [2, 14] [µM]","IC50 [3, 15] [µM]","IC50 [4, 16] [µM]",IC50 ([5]; solutol solutions) [µM],IC50 ([5]; ethanol solutions) [µM],"Solubility, Ethanol ([1]; ethanol, 20 mM stock solutions)",IC50 ([2]; ethanol solutions) [µM],IC50 ([3]; ethanol solutions) [µM],IC50 ([4]; ethanol solutions) [µM],further results
"CCCCCCCCCC(O)CNCCCCCC (stereo not drawn) [Compound A8, 1-Hexyl-amino-undecan-2-ol]",,> 20,> 20,,,,,33 ± 6,,,,,"IC50 [2, 17]: 16 ± 1 µM; IC50 [3, 18]: 22 ± 3 µM; IC50 [4, 19]: 33 ± 4 µM"
"CCCCCCCCCCCCCCCCNCC(O)CCCCCCCCC (stereo not drawn) [Compound A12, 1-hexadecyl-amino-undecan-2-ol]",,,,,,,,> 100,✓*,> 100,> 100,> 100,
"CCCCCCCCCCCCCCNCC(O)CCCCCCCCC (stereo not drawn) [Compound A11, 1-tetradecyl-amino-undecan-2-ol]",,,,,,,,33 ± 6,✓*,9 ± 2,9 ± 3,30 ± 7,
"CCCCCCCCCCCCCCCCC(O)CN(CC)CC (stereo not drawn) [Compound A1, 1-DEA-amino-octadecan-2-ol]",> 4,> 20,> 20,17 ± 4,21 ± 1,24 ± 4,40 ± 3,,,,,,solubility in ethanol and DMSO ([1]; 20 mM stock solutions): good solubility in both solvents
"N.N.[Cl][Pt][Cl] [cis-Pt, reference compound]",,,,,,,> 100,> 100,,30 ± 1,> 100,> 100,IC50 ([2]; solutol solutions): 30 ± 1 µM; IC50 ([3]; solutol solutions): > 100 µM; IC50 ([4]; solutol solutions): > 100 µM
"CCCCCCCCCC(O)CNCCCCCCCC (stereo not drawn) [Compound A9, 1-Octyl-amino-undecan-2-ol]",,< 20,,,,,,14 ± 1,✓*,,,,"IC50 [2, 17]: 7 ± 1 µM; IC50 [3, 18]: 10 ± 1 µM; IC50 [4, 19]: 11 ± 2 µM"
"CCCCCCCCCCCCNCC(O)CCCCCCCCC (stereo not drawn) [Compound A10, 1-Dodecyl-amino-undecan-2-ol]",,,,,,,,10 ± 2,✓*,4 ± 1,4 ± 1,8 ± 2,anticancer activity (in words) [8]: most active; also recorded: highest activity; effect on SPM formation ([6]; 0.5 μM): about 22%; effect on SPM formation ([7]; 0.5 μM): ~8%; SPM formation related to the control (in words) [9]: reduction in SPM formation; SPM formation related to the control (in words) [10]: reduction in SPM formation; Caspase-3 increase (Caspase-3; 10 μM): 7 fold
